The record followed here is patent publication US12685732B2, “Composition for improving, preventing or treating muscular disorders including sulfonamide-based compounds” (The Industry & Academic Cooperation in Chungnam National …, priority 2022, dated 2026).

Series [1] in a line: Body weight in CTX-induced sarcopenia mouse model. The format is in vivo. The note with it: oral 50, 100, 500 mg/kg once/day 10 days, 14 days, except decrease in all groups on day 10 without diet supply. On the procedure: (§1) Specifically, the Rota Rod was measured before CTX injection, and after CTX was injected (day 0), the drug was orally administered once/day for 10 days, and on days 4, 9, and 14, the Rota Rod was measured, respectively.
For a total of 14 days, the body weights of the mice were measured, and any change in body weight was confirmed.
(§2) Specifically, the grip strength was measured before CTX injection, and after CTX was injected (day 0), the drug was orally administered once/day for 10 days, and on days 4, 9, and 14, the grip strength was measured, respectively.

The subject of series [2] is CTX-induced sarcopenia mouse model. Nature of the series: Grip strength recovery in CTX-induced sarcopenia mouse model. The format is in vivo. The note with it: oral 50, 100, 500 mg/kg once/day 10 days, days 4, 9, 14. Here is the method:
as §2

Series [3] relates to C57BL/6J mice. Nature of the series: Single oral dose toxicity: liver pathology by H&E staining. The note with it: single oral 100, 500, 1000 mg/kg; male and female; day 14. It counts as in vivo, mouse. On the procedure:
As in Example 7-1, mice with single oral administration were dissected on day 14 after administration, and histochemical toxicity was evaluated. The pathology of the liver was observed through H&E staining on the dissected liver tissue.

Series [4] relates to CTX-induced sarcopenia mouse model. Nature of the series: Rota Rod balance ability in CTX-induced sarcopenia mouse model. It counts as in vivo. The note with it: oral 50, 100, 500 mg/kg once/day 10 days; days 4, 9, 14; vs (+)PBS group. Here is the method: as §1
Series [5] has as its system C57BL/6J mice. Nature of the series: Single oral dose toxicity: blood liver, heart and kidney toxicity markers. The note with it: single oral 100, 500, 1000 mg/kg; male and female; serum day 14.
Description: 7-week-old male and female C57BL/6J mice with the body weight of 20±3 g were obtained from DooYeol Biotech (Seoul, South Korea). The mice were bred under constant room temperature and 12 h night/day cycle for 1 week before the experiment, and the mice were fed with a standard rodent diet and were freely taken with water.
The collected blood was left at room temperature for 1 hour to be coagulated, and the serum was isolated by operating a centrifuge (13,000 rpm) for 20 minutes. Blood analysis was performed by dividing liver toxicity, heart toxicity, and kidney toxicity, and the analysis was conducted by requesting DooYeol Biotech (Seoul, Korea).
In series [6] the test system is C2C12-PHF20/YY1-promoter-GFP cell line. Nature of the series: HTS system: GFP (green luminescence) in PHF20-overexpressing myoblasts carrying YY1 promoter-GFP. The format is cell-based, mouse. The note with it: 1 nM, 10 nM, 100 nM, 1 μM or 10 μM. The source says:
C2C12 myoblasts, which were stable cells in which PHF20 was overexpressed, were transformed with a plasmid coexisting with a YY1 promoter and GFP, which inhibited muscle differentiation, to prepare a stable cell line. The degree of GFP signal suppression was quantified and measured, and the degree of muscle differentiation was used as a quantitative measurement index (FIG. 1).
Specifically, the C2C12-PHF20/YY1-promoter-GFP cell line according to Example 1 was dispensed in a 96-well plate at 0.5×10^5, cultured for 24 hours, and cells in a 70% confluent state were treated with 250 ng/ml of doxycycline for 24 hours, and then treated with each compound at a final concentration of 10 μM.
For fluorescence intensity, C2C12-PHF20/YY1-promoter-GFP cells were dispensed at 4×10^5 in a 6-well culture plate and cultured for 24 hours. […] Thereafter, the degree of green luminescence was confirmed using GloMax microplate readers explorer (Promega, Madison, Wisconsin, USA).

In series [7] the test system is CTX-induced sarcopenia mouse model. Nature of the series: Muscle recovery by muscle type (myosin I, IIa, IIb antibody staining) in CTX-induced sarcopenia mouse model. The note with it: 4 μM oral. The format is in vivo. Here is the method:
(§3) In order to construct a CTX-induced sarcopenia mouse model, cardiotoxin (LATOXAN, Portes-les-Valence, France) was dissolved at 1 mg/ml in PBS to make a high-concentration stock solution. To apply to the mice, the stock solution was diluted again in PBS at a final concentration of 0.03 mg/ml and used, and intramuscularly injected into both thigh muscles of the mouse using a 1 ml syringe (24 G) to construct a sarcopenia mouse model.

Series [8] shares this test system. Put plainly: Muscle regeneration by H&E staining in CTX-induced sarcopenia mouse model. The note with it: 4 μM oral, 24 h after CTX; tissue on days 3, 6, 10; vs non-administered control. It counts as in vivo. On the procedure:
as §3
Specifically, for mouse muscle tissue immunostaining, the muscle tissues of a comparative group and a sulfamethazine-treated group were fixed in 4% paraformaldehyde, washed, and fixed in paraffin. Tissues were cut to a thickness of about […], fixed to a slide, and then stained using an antibody for each muscle type.

Series [9] concerns C57BL/6J mice. Nature of the series: Single oral dose toxicity: tissue weights at autopsy. It counts as in vivo, mouse. The note with it: single oral 100, 500, 1000 mg/kg; male and female; day 14. On the procedure:
The body weights were measured before administration, and on 1 day, 3 days, 7 days, and 14 days after administration, and an autopsy was performed on day 14.
In the present disclosure, a single oral dose toxicity test refers to a test that qualitatively and quantitatively examines toxicity in a short period of time when a test substance was administered to test animals in a single dose (including divided doses within 24 hours).

As for sulfamethazine, the body weight result in [1] (Rota Rod study) and in [1] (grip strength study) was “no change in body weight was observed” throughout. Also, in series [2], the “grip strength, all four paws” value is reported as “grip strength was increased in a sulfamethazine concentration-dependent manner”. In addition, in [2] (vs (+)PBS group), the “grip strength, hind legs (2 paws)” value is reported as “grip strength of mice increased as the dose of sulfamethazine increased”. In addition, the “liver pathology (H&E)” value in the series on C57BL/6J mice [3] is “no specific pathological findings were observed”. In series [4], the “balance ability of the Rota Rod” value is “the higher the dose of sulfamethazine, the higher the balance ability of the Rota Rod”. For the same substance, the “blood liver toxicity, heart toxicity and kidney toxicity markers” value in the series on C57BL/6J mice [5] was “no specific phenomena related to liver toxicity, heart toxicity, and kidney toxicity”. In addition, the “intensity of green fluorescence by concentration” value in [6] was “the higher the treated concentration of sulfamethazine, the weaker the intensity of fluorescence”. Moreover, the “expression of myosin I” value in series [7] (day 6) is reported as “expression of blue-stained myosin I was increased”. In addition, in [7] (day 10), the “muscle image by myosin type staining” value was “recovered similarly to that of a normal control group on day 0”. Besides, the “expression of myosin IIa and myosin IIb” value in [7] (vs control group) was “increase in expressions of green myosin IIa and red myosin IIb”. Further, the “degree of muscle differentiation / regeneration by H&E staining” value in [8] is “the muscle was regenerated compared to the control group”. In the series on C57BL/6J mice [9], the tissue weight entry is recorded as “no singularity in tissue weight”.
